According to patent US10251395B2, “Substituted furano-/thienocycloalkylamino-2-pyrimidine derivatives and use thereof for controlling undesired plant growth” (Bayer CropScience Aktiengesellschaft, priority 2015, dated 2019):

Experiments:
Format in all cases: in vivo
Alopecurus myosuroides = experiment: Pre-emergence herbicidal effect; details: Dosage 320 g/ha, scored visually after 3 weeks
Description: (§1) Seeds of monocotyledonous and dicotyledonous weed plants and crop plants are laid out in wood-fiber pots in sandy loam and covered with soil. The compounds of the invention, formulated in the form of wettable powders (WP) or as emulsion concentrates (EC), are then applied to the surface of the covering soil as aqueous suspension or emulsion at a water application rate equating to 600 to 800 L/ha with addition of 0.2% wetting agent.
(§2) After the treatment, the pots are placed in a greenhouse and kept under good growth conditions for the trial plants. The damage to the test plants is scored visually after a test period of 3 weeks by comparison with untreated controls (herbicidal activity in percent (%): 100% activity=the plants have died, 0% activity=like control plants).
(§3) • ABUTH: Abutilon theophrasti ALOMY: Alopecurus myosuroides • AMARE: Amaranthus retroflexus AVEFA: Avena fatua • CYPES: Cyperus esculentus ECHCG: Echinochloa crus-galli • LOLMU: Lolium multiflorum MATIN: Matricaria inodora • PHBPU: Ipomoea purpurea POLCO: Polygonum convolvulus • SETVI: Setaria viridis STEME: Stellaria media • VERPE: Veronica persica VIOTR: Viola tricolor

Amaranthus retroflexus [1] = experiment: Pre-emergence herbicidal effect; details: scored visually after 3 weeks
Description: as §1, §2, §3

Echinochloa crus-galli = experiment: Pre-emergence herbicidal effect; details: Dosage 320 g/ha, scored visually after 3 weeks
Description: as §1, §2, §3

Setaria viridis [2] = experiment: Pre-emergence herbicidal effect; details: scored visually after 3 weeks
Description: as §1, §2, §3

Stellaria media [3] = experiment: Pre-emergence herbicidal effect; details: scored visually after 3 weeks
Description: as §1, §2, §3

Veronica persica [4] = experiment: Pre-emergence herbicidal effect; details: scored visually after 3 weeks
Description: as §1, §2, §3

Viola tricolor [5] = experiment: Pre-emergence herbicidal effect; details: scored visually after 3 weeks
Description: as §1, §2, §3

Abutilon theophrasti = experiment: Post-emergence herbicidal effect; details: assessed visually after about 3 weeks vs untreated controls
Description: (§4) • ABUTH: Abutilon theophrasti ALOMY: Alopecurus myosuroides • AMARE: Amaranthus retroflexus AVEFA: Avena fatua • CYPES: Cyperus esculentus ECHCG: Echinochloa crus-galli • LOLMU: Lolium multiflorum MATIN: Matricaria inodora • PHBPU: Ipomoea purpurea POLCO: Polygonum convolvulus • SETVI: Setaria viridis STEME: Stellaria media • VERPE: Veronica persica VIOTR: Viola tricolor Seeds of monocotyledonous and dicotyledonous weed and crop plants are laid out in sandy loam in wood-fiber pots, covered with soil and cultivated in a greenhouse under good growth conditions. 2 to 3 weeks after sowing, the test plants are treated at the one-leaf stage. The compounds of the invention, formulated in the form of wettable powders (WP) or as emulsion concentrates (EC), are then sprayed onto the green parts of the plants as aqueous suspension or emulsion at a water application rate equating to 600 to 800 L/ha with addition of 0.2% wetting agent. After the test plants have been left to stand in the greenhouse under optimal growth conditions for about 3 weeks, the action of the preparations is assessed visually in comparison to untreated controls (herbicidal action in percent (%): 100% activity=the plants have died, 0% activity=like control plants).

Amaranthus retroflexus [6] = experiment: Post-emergence herbicidal effect; details: assessed visually after about 3 weeks vs untreated controls
Description: as §4

Ipomoea purpurea = experiment: Post-emergence herbicidal effect; details: 320 g/ha, assessed visually after about 3 weeks vs untreated controls
Description: as §4

Matricaria inodora [7] = experiment: Post-emergence herbicidal effect; details: assessed visually after about 3 weeks vs untreated controls
Description: as §4

Setaria viridis [8] = experiment: Post-emergence herbicidal effect; details: assessed visually after about 3 weeks vs untreated controls
Description: as §4

Stellaria media [9] = experiment: Post-emergence herbicidal effect; details: assessed visually after about 3 weeks vs untreated controls
Description: as §4

Veronica persica [10] = experiment: Post-emergence herbicidal effect; details: assessed visually after about 3 weeks vs untreated controls
Description: as §4

Viola tricolor [11] = experiment: Post-emergence herbicidal effect; details: assessed visually after about 3 weeks vs untreated controls
Description: as §4

Lolium multiflorum = experiment: Pre-emergence herbicidal effect; details: Dosage 320 g/ha, scored visually after 3 weeks
Description: as §1, §2, §3

Matricaria inodora [12] = experiment: Pre-emergence herbicidal effect; details: scored visually after 3 weeks
Description: as §1, §2, §3

Polygonum convolvulus = experiment: Pre-emergence herbicidal effect; details: scored visually after 3 weeks
Description: as §1, §2, §3

Row | Structure (SMILES) | ALOMY pre-emergence efficacy (herbicidal activity) (Alopecurus myosuroides) | AMARE pre-emergence efficacy (herbicidal activity) (Amaranthus retroflexus [1]; Dosage 320 g/ha) | ECHCG pre-emergence efficacy (herbicidal activity) (Echinochloa crus-galli) | SETVI pre-emergence efficacy (herbicidal activity) (Setaria viridis [2]; Dosage 80 g/ha) | SETVI pre-emergence efficacy (herbicidal activity) (Setaria viridis [2]; Dosage 320 g/ha) | STEME pre-emergence efficacy (herbicidal activity) (Stellaria media [3]; Dosage 80 g/ha) | STEME pre-emergence efficacy (herbicidal activity) (Stellaria media [3]; Dosage 320 g/ha) | VERPE pre-emergence efficacy (herbicidal activity) (Veronica persica [4]; Dosage 80 g/ha) | VERPE pre-emergence efficacy (herbicidal activity) (Veronica persica [4]; Dosage 320 g/ha) | VIOTR pre-emergence efficacy (herbicidal activity) (Viola tricolor [5]; Dosage 80 g/ha) | VIOTR pre-emergence efficacy (herbicidal activity) (Viola tricolor [5]; Dosage 320 g/ha) | post-emergence efficacy ABUTH (Abutilon theophrasti; 80 g/ha) | post-emergence efficacy ABUTH (Abutilon theophrasti; 320 g/ha) | post-emergence efficacy AMARE (Amaranthus retroflexus [6]; 80 g/ha) | post-emergence efficacy AMARE (Amaranthus retroflexus [6]; 320 g/ha) | post-emergence efficacy MATIN (Matricaria inodora [7]; 320 g/ha) | post-emergence efficacy SETVI (Setaria viridis [8]; 320 g/ha) | post-emergence efficacy VERPE (Veronica persica [10]; 320 g/ha) | post-emergence efficacy VIOTR (Viola tricolor [11]; 80 g/ha) | post-emergence efficacy VIOTR (Viola tricolor [11]; 320 g/ha) | other results
1 | Cc1cc2c(s1)CCCC2Nc1ncc(C(N)=O)c(N)n1 (racemic) [compound 267] | 80% | 100% | 90% | 80% | 80% | 100% | 100% | 100% | 100% | 90% | 100% | 80% | 80% | 80% | 80% | 80% | 60% | 80% | 80% | 90% | AMARE pre-emergence efficacy (herbicidal activity) (Amaranthus retroflexus [1]; Dosage 80 g/ha): 100%; post-emergence efficacy PHBPU (Ipomoea purpurea): 80%; post-emergence efficacy MATIN (Matricaria inodora [7]; 80 g/ha): 80%; post-emergence efficacy STEME (Stellaria media [9]; 80 g/ha): 80%; post-emergence efficacy STEME (Stellaria media [9]; 320 g/ha): 100%; post-emergence efficacy VERPE (Veronica persica [10]; 80 g/ha): 80%
2 | Cc1cc2c(s1)CCCC2Nc1ncc(-c2cncc(C(F)(F)F)c2)c(N)n1 (racemic) [compound 290] | 80% | 100% | 100% | 60% | 100% | 100% | 100% | 100% | 100% | 100% | 100% | 60% | 60% | 80% | 80% | 90% | 60% | 100% | 60% | 90% | LOLMU pre-emergence efficacy (herbicidal activity) (Lolium multiflorum): 100%; MATIN pre-emergence efficacy (herbicidal activity) (Matricaria inodora [12]; Dosage 80 g/ha): 90%; MATIN pre-emergence efficacy (herbicidal activity) (Matricaria inodora [12]; Dosage 320 g/ha): 100%; POLCO pre-emergence efficacy (herbicidal activity) (Polygonum convolvulus; Dosage 80 g/ha): 50%; POLCO pre-emergence efficacy (herbicidal activity) (Polygonum convolvulus; Dosage 320 g/ha): 80%; post-emergence efficacy MATIN (Matricaria inodora [7]; 80 g/ha): 80%
3 | Cc1cc2c(s1)CCCC2Nc1ncc(-c2ccccc2)c(N)n1 (racemic) [compound 296] |  |  |  | 70% | 100% |  | 90% | 100% | 100% | 60% | 100% |  | 70% | 60% | 90% | 60% | 70% | 90% | 70% | 80% | MATIN pre-emergence efficacy (herbicidal activity) (Matricaria inodora [12]; Dosage 80 g/ha): 90%; MATIN pre-emergence efficacy (herbicidal activity) (Matricaria inodora [12]; Dosage 320 g/ha): 100%; post-emergence efficacy SETVI (Setaria viridis [8]; 80 g/ha): 40%
